Results on four compounds are retold here after patent EP4782431A1 (Suzhou Merna Therapeutics Co. Ltd, priority 2023, dated 2025).

Data set [1] concerns kinase inhibitor-induced mouse model with hand-foot skin reaction. Nature of the data set: kinase inhibitor-induced mouse model with hand-foot skin reaction. In kind it is in vivo, ICR mice. To be noted: for expression level of cytokine IL-1β in the skin tissues of the hind limb toes of the mice / infiltration of inflammatory cells / thickening of the epidermal layer and the stratum corneum in the skin tissues: 3% ointment topical or nicotinamide 100 mg/kg oral; for infiltration of inflammatory cells / thickening of the epidermal layer and the stratum corneum in the skin tissues / swelling of the toes caused by the modeling drugs: sorafenib and osimertinib models; for swelling of the toes caused by the modeling drugs: compound of formula (I) 3% ointment topical or nicotinamide 100 mg/kg oral, once daily 16 days; for cytokine IL-1β in the skin tissues of the hind limb toes of the mice: modeling drug oral 14 days, p<0.05; for cytokine IL-1β in the skin tissues of the hind limb toes of the mice / epidermal layer and the stratum corneum in the skin tissues of the hind limb toes / skin of the hind limb toes of the mice (appearance): vs normal control group; for swelling of the hind limb toes of the mice / epidermal layer and the stratum corneum in the skin tissues of the hind limb toes: modeling drug oral; for swelling of the hind limb toes of the mice: 14 days: sorafenib 100 mg/kg, osimertinib 10 mg/kg; for epidermal layer and the stratum corneum in the skin tissues of the hind limb toes: 14 days: sorafenib, osimertinib; for skin of the hind limb toes of the mice (appearance): modeling for 14 days: sorafenib 100 mg/kg, osimertinib 10 mg/kg oral gavage once daily. The text has this: After adaptive feeding for 7 days, SPF-grade ICR mice (male, 5-6 weeks old, with a body weight of approximately 35 g) were randomly divided into groups, including a blank control group (6 mice), a sorafenib modeling group (6 mice), an osimertinib modeling group (6 mice), a sorafenib + compound of formula (I) group (6 mice), an osimertinib + compound of formula (I) group (6 mice), a sorafenib + nicotinamide group (6 mice), and an osimertinib + nicotinamide group (6 mice). The groups were respectively administered corresponding modeling drugs by oral gavage (sorafenib at 100 mg/kg and osimertinib at 10 mg/kg) once daily; and the blank control group was administered an equivalent volume of normal saline. After administration with the chemotherapeutic drugs for 2 weeks, the ointments containing the compound of formula (I) (at a compound content of 3%) used in Example 10 were respectively applied topically in the groups, or nicotinamide was orally administered (100 mg/kg) once daily continuously for 16 days.
Measurement of the degree of swelling of toes: The degree of swelling of hind limb toes of the mice was measured using a toe swelling tester (KW-7C, Nanjing Calvin Biotechnology Co., Ltd.) before administration with the modeling drugs, after administration with the modeling drugs for 2 weeks, and before sacrifice, respectively. Before measurement, ankle joints of hind feet of the mice were marked at same positions before administration, after administration for 2 weeks, and before sacrifice. During measurement, water was properly located at the same level as the marked positions, and numerical values were recorded after becoming stable.
Pathological staining of skin tissues: Skin tissue samples were selected from hind limb toes of the mice and placed in 4% paraformaldehyde for fixation at room temperature for 4 hours. Then, the tissues were taken out and rinsed with running water for several hours. The samples were subjected to dehydration treatment with 70%, 80%, and 90% ethanol solutions, followed by treatment with a mixed solution of equal amounts of absolute alcohol and xylene for 15 minutes, and then permeabilized twice with a xylene solution for 15 minutes each time until the samples became transparent. The samples were placed in a mixture of half xylene and half paraffin for soaking for 15 minutes, and then, paraffin I and paraffin II were added for wax penetration for one hour, respectively. After embedding with paraffin, the samples were sectioned, baked, dewaxed, and hydrated. Then, the hydrated sections were placed in a hematoxylin solution (ZSGB-BIO, article No. 23041001) for staining for 3 minutes, and a differentiation solution of hydrochloric acid in ethanol was added for differentiation for 15 seconds. After rinsing with water, a Scott bluing solution (Servicebio, article No. 20230801) was added for bluing for 15 seconds. After rinsing with running water, the sections were stained with an eosin solution (Solarbio, article No. 33535) for 3 minutes, rinsed with running water, dehydrated, permeabilized, sealed, and inspected under a microscope.
Immunohistochemical staining: After baking, dewaxing, and hydration, paraffin sections of skin tissues of hind limb toes of the mice were subjected to antigen retrieval using a 0.2 M citric acid buffer solution (containing 1.534 g of citric acid, 3.1 g of sodium citrate, and 100 mL of distilled water, pH 4.7). Endogenous […] was removed using 3% hydrogen peroxide (Shandong Annjet High-Tech Disinfection Technology Co., Ltd., article No. 20290902), and the sections were incubated at room temperature for 10 minutes and then fully rinsed with a PBS buffer solution (containing 8 g of NaCl, 0.2 g of KCl, 1.44 g of Na2HPO4, and 1 M HCl, pH 7.4). The sections were permeabilized with 0.5% Triton-X-100 (AmyJet Scientific, article No. A-CSH436-100 mL), respectively permeabilized with mouse anti-IL-1β and rabbit IL-8 for 10 minutes, and not permeabilized with rabbit anti-IL-6. […]

For the next data set, the system named is HaCaT cells. Put plainly: m6A methylation level of drug-treated HaCaT keratinocytes by nanopore sequencing. In kind it is cell-based, human. The note with it: 50 nM drug, 24 hours, vs blank control group. As to the method: 1*10^8 HaCaT cells were seeded in culture dishes, into which 50 nM drugs (including sorafenib, capecitabine, docetaxel, and osimertinib) were added, respectively. The cells were cultured in an incubator containing 5% CO2 at 37°C for 24 hours and washed with PBS after culture media were removed. Centrifugation was performed, the supernatant was discarded, and then, 400 µL of an RLT cell lysis buffer (QIAGEN, Cat.#79216) was added. A portion of samples were selected, into which 400 µL of 70% ethanol was added. The mixture was evenly stirred and then transferred to an RNeasy mini column, and RNA was extracted using an RNeasy mini kit (QIAGEN, Cat.#74104). 2 µL of an RNA sample was selected and dissolved in 98 µL of a 10 mM Tris-HCl buffer solution, and the absorbance at 260 nm was measured using a Nanodrop (Thermo Fisher Scientific) to determine the RNA concentration.
40 µg of an RNA sample was selected for enrichment of mRNA (PolyA+RNA) using an NEBNext Poly(A) mRNA magnetic isolation module (NEB, Cat.#E7490), and then, a 3' end of the above enriched mRNA (PolyA+RNA) molecule was ligated with reverse transcription adapter RTA using a direct RNA sequencing kit (Oxford Nanopore Technologies, Cat.#SQK-RNA002). A reverse transcription reaction was performed with the mRNA (PolyA+RNA) molecule as a template to synthesize a complementary strand, a terminal end of the reverse transcription adapter RTA was ligated with a sequencing adapter (RNA adapter) to form a final sequencing library, and quantitative detection was performed using a Qubit™ dsDNA HS assay kit (Invitrogen, Cat.#LOT2133187).
After quality inspection of the library, the prepared sequencing library was loaded onto a PromethION flow cell chip (Oxford Nanopore Technologies, Cat.#FLO-MIN106D), and placed in a PromethION sequencer (Oxford Nanopore Technologies) for sequencing by selecting a matched sequencing mode. Basecalling was performed on sequencing data through guppy, and m6A methylation analysis was performed on original fast5 data.

The structures appear in SMILES notation.

On to `NC(=O)[C@H]1CCCc2c1[nH]c1ccc(Cl)cc21` [Compound of formula (I), (S)-6-chloro-2,3,4,9-tetrahydro-1H-carbazole-carboxamide], for which, in data set [1] (osimertinib model), the “expression level of cytokine IL-1β in the skin tissues of the hind limb toes of the mice” value (from here on “expression level of cytokine IL-1β”) was “significantly decrease”. Besides, in data set [1], the “infiltration of inflammatory cells” value is “no infiltration of inflammatory cells observed”; the “thickening of the epidermal layer and the stratum corneum in the skin tissues” value is listed as “effectively alleviate”; the “swelling of the toes caused by the modeling drugs” value is “effectively alleviate”. In addition, the “expression level of cytokine IL-1β” value in data set [1] (sorafenib model) is recorded as “significantly decrease”.

For `NC(=O)c1cccnc1` [Nicotinamide, nicotinamide], the “expression level of cytokine IL-1β” value in data set [1] (osimertinib model) was “didn't have a significant impact”. For the same compound, in data set [1], the “infiltration of inflammatory cells” value is “infiltration of inflammatory cells still observed”; the “thickening of the epidermal layer and the stratum corneum in the skin tissues” value is “didn't significantly alleviate”; the “swelling of the toes caused by the modeling drugs” value is “not observed that oral administration of the nicotinamide at 100 mg/kg significantly alleviated the swelling”. Also, the “expression level of cytokine IL-1β” value in data set [1] (sorafenib model) is recorded as “didn't have a significant impact”.

On to `C=CC(=O)Nc1cc(Nc2nccc(-c3cn(C)c4ccccc34)n2)c(OC)cc1N(C)CCN(C)C` [Osimertinib, osimertinib], for which, in data set [1], the “cytokine IL-1β in the skin tissues of the hind limb toes of the mice” value is recorded as “significantly increased”; the “swelling of the hind limb toes of the mice” value is given as “significant swelling of the hind limb toes of the mice was caused”; the “epidermal layer and the stratum corneum in the skin tissues of the hind limb toes” value was “significantly thickened”; the “skin of the hind limb toes of the mice (appearance)” value was “obvious erythema and rhagades”. In addition, the “m6A methylation levels of HaCaT cells higher than that of the control group” value with HaCaT cells is listed as 5.13 fold.

Take `CNC(=O)c1cc(Oc2ccc(NC(=O)Nc3ccc(Cl)c(C(F)(F)F)c3)cc2)ccn1` [Sorafenib, sorafenib]: in data set [1], the “cytokine IL-1β in the skin tissues of the hind limb toes of the mice” value is “significantly increased”; the “swelling of the hind limb toes of the mice” value was “significant swelling of the hind limb toes of the mice was caused”; the “epidermal layer and the stratum corneum in the skin tissues of the hind limb toes” value is recorded as “significantly thickened”; the “skin of the hind limb toes of the mice (appearance)” value is “obvious erythema and rhagades”. Besides, the “m6A methylation levels of HaCaT cells higher than that of the control group” value in the data set on HaCaT cells is given as 5.05 fold.
